Reference: patent US20210255193A1, “LYSINE REACTIVE PROBES AND USES THEREOF” (The Scripps Research Institute, priority 2017, published 2021)

How the values were obtained:
Assay in all cases: competitive isoTOP-ABPP
Type in all cases: binding
[1] = molecular target: T1, ACBD3 Golgi resident protein GCP60 (Homo sapiens, UniProt Q9H3P7)
T1 construct: isoTOP-ABPP experiments performed in cell lysates (in vitro); endogenous in cells; host or cells: soluble proteome of human cancer cell lines (MDA-MB-231; Ramos and Jurkat also prepared)
T1 sequence (Q9H3P7 1-528): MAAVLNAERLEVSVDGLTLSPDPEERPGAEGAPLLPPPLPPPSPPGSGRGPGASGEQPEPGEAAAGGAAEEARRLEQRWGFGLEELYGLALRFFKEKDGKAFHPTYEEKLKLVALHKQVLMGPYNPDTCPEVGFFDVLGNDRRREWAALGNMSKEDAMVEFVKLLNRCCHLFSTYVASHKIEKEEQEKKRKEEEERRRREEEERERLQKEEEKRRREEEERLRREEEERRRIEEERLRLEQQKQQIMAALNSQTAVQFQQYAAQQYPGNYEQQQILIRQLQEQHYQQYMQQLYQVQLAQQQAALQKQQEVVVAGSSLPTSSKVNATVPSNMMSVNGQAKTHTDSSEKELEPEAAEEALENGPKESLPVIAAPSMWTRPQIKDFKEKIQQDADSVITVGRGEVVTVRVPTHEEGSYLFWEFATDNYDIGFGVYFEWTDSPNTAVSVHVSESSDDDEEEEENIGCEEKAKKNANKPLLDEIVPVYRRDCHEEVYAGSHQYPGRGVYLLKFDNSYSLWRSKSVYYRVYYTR
Experimental: (§1) In vitro covalent fragment treatment for isoTOP-ABPP. All compounds were made up as solutions in DMSO (100×) and were used at a final concentration of 50 μM for activated esters and 100 μM for guanidinylating agents. For each profiling sample, 0.5 ml of lysate was treated with 5 μl of the 100× compound stock solution or 5 μl of DMSO. Samples were treated with activated esters for
(§2) STP-alkyne labeling and click chemistry. For concentration-dependent reactivity measurements by isoTOP-ABPP, 0.5 ml proteome aliquots were treated at ambient temperature with 1 mM STP-alkyne 1 (5 μl of 100 mM stock in DMSO) and 0.1 mM STP alkyne 1 (5 μl of 10 mM stock in DMSO), respectively. For competitive isoTOP-ABPP, after in vitro fragment treatment (detailed above), the samples were labeled for 1 h at ambient temperature with 0.1 mM STP-alkyne 1 (5 μl of 10 mM stock in DMSO). Samples were conjugated by copper-mediated azide-alkyne cycloaddition (CuAAC) to either the light (1 mM STP-alkyne or fragment treated) or heavy (0.1 mM STP-alkyne or DMSO treated) TEV tags (10 μl of 5 mM stocks in DMSO, final concentration=100 μM) using tris(2-carboxyethyl)phosphine hydrochloride
(§3) R value calculation and processing. The ratios of light and heavy MS1 peaks for each unique peptide were quantified with a CIMAGE software using default parameters (3 MS1 acquisitions per peak and signal to noise threshold set to 2.5). For reactivity measurements by isoTOP-ABPP, the R value was calculated from the ratio of MS1 peak areas, comparing the 1 mM STP alkyne sample (light TEV tag) with the 0.1 mM STP alkyne sample (heavy TEV tag). For competitive isoTOP-ABPP, the R value was calculated from the ratio of MS1 peak areas, comparing the DMSO treated sample (heavy TEV tag) with the compound treated sample (light TEV tag). […] Ratios for unique peptide entries are calculated for each experiment; overlapping peptides with the same modified lysine (for example, different charge states, MudPIT chromatographic steps or tryptic termini) are grouped together and the median ratio is reported as the final ratio (R). The peptide ratios reported by CIMAGE were further filtered to ensure the removal or correction of low-quality ratios in each individual data set. The quality filters applied were the following: removal of half tryptic peptides; for ratios with high standard deviations from the median (90% of the median or above) the lowest ratio was taken instead of the median; removal of peptides with R=20 and only a single MS2 event triggered during the elution of the parent ion; manual annotation of all the peptides with ratios of 20, removing any peptides with low quality elution profiles that remained after the previous curation steps (only done for competitive isoTOP-ABPP).
(§4) Cross-data processing for fragment screening. For compound treated samples, biological replicates of the same condition were averaged, if the standard deviation was below 60% of the mean; otherwise, for lysines with at least one R value <4 for a particular compound, the lowest value of the ratio set was taken. For lysines, where all R values for a particular compound were ≥4, the average was reported. For peptides containing several possible modified lysines, the lysine with the highest number of quantification events was used for analysis and the remaining, redundant peptides were reported as alternative modification sites. Peptides included in the aggregate dataset (those used for further bioinformatics and statistical analyses) were required to have been quantified in 2 experiments for competitive isoTOP-ABPP. Lysines were categorized as liganded, if they had at least one ratio R≥4 (hit fragments). For liganded lysines with R=20 for all liganding events, lysines were required to have been quantified with R=20 in two separate experiments and were further required to have been quantified with R<20 in one additional experiment.

[2] = molecular target: T2, MAP1LC3B Microtubule-associated proteins 1A/1B light chain (Homo sapiens, UniProt Q9GZQ8)
T2 construct: isoTOP-ABPP experiments performed in cell lysates (in vitro); endogenous in cells; host or cells: soluble proteome of human cancer cell lines (MDA-MB-231; Ramos and Jurkat also prepared)
Experimental: as §1, §2, §3, §4

[3] = molecular target: T3, NUDT2 Bis(5-nucleosyl)-tetraphosphatase (Homo sapiens, UniProt P50583); settings: for isoTOP-ABPP ratio, lysine P50583_K89: possible other lysine P50583_K87; for reaction with K89 by isoTOP-ABPP: NUDT2 K89
T3 construct: isoTOP-ABPP experiments performed in cell lysates (in vitro); endogenous in cells
Experimental: as §1, §2, §3, §4

[4] = molecular target: T4, KIAA1967 DBIRD complex subunit KIAA1967 (Homo sapiens, UniProt Q8N163)
T4 construct: isoTOP-ABPP experiments performed in cell lysates (in vitro); endogenous in cells; host or cells: soluble proteome of human cancer cell lines (MDA-MB-231; Ramos and Jurkat also prepared)
Experimental: as §1, §2, §3, §4

T3 sequence (P50583 whole entry): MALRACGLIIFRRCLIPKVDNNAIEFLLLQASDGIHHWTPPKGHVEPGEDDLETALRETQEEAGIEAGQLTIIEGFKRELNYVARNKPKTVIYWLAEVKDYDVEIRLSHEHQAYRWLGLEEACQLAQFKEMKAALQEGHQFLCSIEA
T4 sequence (Q8N163 whole entry, one chain of several): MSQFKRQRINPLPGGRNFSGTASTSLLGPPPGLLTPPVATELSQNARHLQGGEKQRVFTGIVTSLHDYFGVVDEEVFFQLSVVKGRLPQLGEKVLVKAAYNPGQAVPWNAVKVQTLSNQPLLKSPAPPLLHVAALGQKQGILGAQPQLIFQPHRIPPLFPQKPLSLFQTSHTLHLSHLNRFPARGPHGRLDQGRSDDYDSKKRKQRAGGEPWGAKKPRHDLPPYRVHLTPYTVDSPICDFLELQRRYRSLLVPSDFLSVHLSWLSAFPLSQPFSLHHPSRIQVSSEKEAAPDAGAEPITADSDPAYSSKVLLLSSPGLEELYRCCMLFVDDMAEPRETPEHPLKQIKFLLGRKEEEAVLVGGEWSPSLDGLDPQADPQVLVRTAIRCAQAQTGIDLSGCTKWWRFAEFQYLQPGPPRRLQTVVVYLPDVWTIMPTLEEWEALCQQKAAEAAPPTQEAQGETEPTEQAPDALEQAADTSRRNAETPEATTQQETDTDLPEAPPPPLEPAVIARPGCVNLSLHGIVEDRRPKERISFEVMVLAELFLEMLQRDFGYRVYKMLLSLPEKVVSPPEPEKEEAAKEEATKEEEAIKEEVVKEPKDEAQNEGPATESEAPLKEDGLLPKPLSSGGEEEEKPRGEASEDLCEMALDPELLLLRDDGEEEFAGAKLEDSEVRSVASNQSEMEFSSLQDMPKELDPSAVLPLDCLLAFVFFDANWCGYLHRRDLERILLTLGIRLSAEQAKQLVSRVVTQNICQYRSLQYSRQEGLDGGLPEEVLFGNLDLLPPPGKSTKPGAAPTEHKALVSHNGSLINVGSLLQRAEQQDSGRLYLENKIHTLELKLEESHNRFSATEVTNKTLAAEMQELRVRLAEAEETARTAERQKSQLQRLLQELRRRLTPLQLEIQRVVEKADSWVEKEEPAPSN

| isoTOP-ABPP ratio, lysine Q9H3P7_K117 ([1]; 50 uM_231_sol_in vitro) | isoTOP-ABPP ratio, lysine Q9GZQ8_K51 ([2]; 50 uM_231_sol_in vitro) | isoTOP-ABPP ratio, lysine P50583_K89 ([3]; 50 uM_231_sol_in vitro) | isoTOP-ABPP ratio, lysine Q8N163_K97 ([4]; 50 uM_231_sol_in vitro) | isoTOP-ABPP ratio, lysine Q8N163_K112 ([4]; 50 uM_231_sol_in vitro) | isoTOP-ABPP ratio, lysine Q9H3P7_K117 ([1]; 100 uM_231_sol_in vitro) | isoTOP-ABPP ratio, lysine Q9GZQ8_K51 ([2]; 100 uM_231_sol_in vitro) | isoTOP-ABPP ratio, lysine P50583_K89 ([3]; 100 uM_231_sol_in vitro) | reaction with K89 by isoTOP-ABPP [3] | isoTOP-ABPP ratio, lysine Q8N163_K97 ([4]; 100 uM_231_sol_in vitro) | isoTOP-ABPP ratio, lysine Q8N163_K112 ([4]; 100 uM_231_sol_in vitro) | SMILES |
| --- | --- | --- | --- | --- | --- | --- | --- | --- | --- | --- | --- |
| 1.0 | 0.9 | 1.0 | 0.9 | 1.5 | – | – | – | – | – | – | O=C(Oc1c(F)c(F)c(C(F)(F)F)c(F)c1F)c1cc(C(F)(F)F)cc(C(F)(F)F)c1 [fragment 47, 2,3,5,6-Tetrafluoro-4-(trifluoromethyl)phenyl 3,5-bis(trifluoromethyl)benzoate] |
| 0.9 | 0.8 | 1.0 | 0.6 | 1.0 | – | – | – | – | – | – | O=C(Oc1c(F)c(F)cc(F)c1F)c1cc(C(F)(F)F)cc(C(F)(F)F)c1 [fragment 48, 2,3,5,6-Tetrafluorophenyl 3,5-bis(trifluoromethyl)benzoate] |
| – | – | – | – | – | 13.9 | 1.6 | 20.0 | preferentially reacting | 9.4 | 20.0 | COC(=O)NC(=NC(=O)OCC1c2ccccc2-c2ccccc21)n1cccn1 [fragment 49, N-Methoxycarbonyl-N′-9-fluorenylmethoxycarbonyl-pyrazole-1-carboxamidine] |
| – | – | – | – | – | 14.9 | 4.6 | 20.0 | preferentially reacting | 3.9 | 4.7 | CC(C)(C)OC(=O)N=C(NC(=O)OC(C)(C)C)n1cccn1 [fragment 50, reference compound] |
